Results as given in US20080181848A1 (priority 2004, published 2008).
Where a name gives a salt, the structure may show the parent alone.

Tests used:
D2 receptors in striatum = biological target: T1, D2 receptors in striatum (Rattus norvegicus, UniProt P61169); test: Binding of intravenously injected radioligand in rat striatum, alone and co-injected with NPA (Examples 2 and 3); assay type: in vivo, Sprague-Dawley rats
T1 construct: from tissue; host or cells: striatum of Sprague-Dawley rats (in vivo labelling)
From the text: In describing and validating the method of the present invention using rats instead of humans, there are certain considerations that should be noted. For example, each rat is not imaged, but is guillotined, and the striatum removed in order to measure the radioactivity in DPM/mg tissue, where DPM represents disintegrations per minute.
Sprague-Dawley rats (275-300 g) were restrained in transparent polystyrene cages. The tail vein was warmed in warm water.

D1 receptor = D1 receptor (Homo sapiens, UniProt P21728); conditions: D1^High state; read-out: dissociation constant for the high-affinity state of the D1 receptor; cited from earlier work
[1] = rat striatum, radioligand co-injected i.v. with NPA 25 μg/kg
[2] = 25 μg/Kg NPA co-injected i.v., rats, n=6

T1 sequence (P61169 whole entry): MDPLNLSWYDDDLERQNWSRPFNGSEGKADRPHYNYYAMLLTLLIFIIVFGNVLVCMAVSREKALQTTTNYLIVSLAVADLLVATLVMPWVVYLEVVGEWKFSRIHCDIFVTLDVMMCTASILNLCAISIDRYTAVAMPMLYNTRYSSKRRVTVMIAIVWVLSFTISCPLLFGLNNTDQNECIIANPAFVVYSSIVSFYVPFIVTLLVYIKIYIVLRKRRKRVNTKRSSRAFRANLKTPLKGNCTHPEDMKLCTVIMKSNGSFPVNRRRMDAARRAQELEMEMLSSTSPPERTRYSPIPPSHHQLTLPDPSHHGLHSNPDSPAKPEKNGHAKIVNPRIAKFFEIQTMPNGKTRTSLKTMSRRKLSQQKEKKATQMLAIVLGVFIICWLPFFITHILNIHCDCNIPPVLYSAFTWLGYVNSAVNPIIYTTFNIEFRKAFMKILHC
Chain of D1 receptor (P21728 whole entry): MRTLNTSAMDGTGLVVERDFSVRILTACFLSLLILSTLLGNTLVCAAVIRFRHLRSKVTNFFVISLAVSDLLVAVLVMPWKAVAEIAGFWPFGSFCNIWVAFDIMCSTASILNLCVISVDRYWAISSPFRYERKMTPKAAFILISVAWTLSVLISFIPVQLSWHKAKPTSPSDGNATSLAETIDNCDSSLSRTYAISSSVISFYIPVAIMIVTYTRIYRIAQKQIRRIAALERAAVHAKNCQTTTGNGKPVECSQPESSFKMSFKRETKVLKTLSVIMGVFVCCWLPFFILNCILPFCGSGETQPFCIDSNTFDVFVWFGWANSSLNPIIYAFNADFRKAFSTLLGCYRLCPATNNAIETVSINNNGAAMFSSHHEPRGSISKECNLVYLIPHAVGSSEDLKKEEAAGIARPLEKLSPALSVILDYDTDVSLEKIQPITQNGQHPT

For `CCN1CCC[C@H]1CNC(=O)c1c(O)c(Cl)cc(Cl)c1OC` (racemic) [[^3H]Raclopride], the Control (D2 receptors in striatum; rat striatum, 30 min after i.v. 0.1 nmol radioligand, no NPA) was 2.8 pmol/g, the “Control DPM/mg (total binding in striatum)” value (D2 receptors in striatum; rat striatum, 30 min after i.v. 0.1 nmol radioligand, no NPA, n=6) was 37.9 DPM/mg and the “pmol/g Displaced by NPA” value (D2 receptors in striatum; rat striatum, NPA 25 μg/kg co-injected) was 1.09 pmol/g. For the same molecule, the “With NPA” value (D2 receptors in striatum; [1]) was 1.71 pmol/g and the “With NPA DPM/mg” value (D2 receptors in striatum; [1]) was 23.13 DPM/mg.
In the case of `CCCN1CCOC2c3cc(O)ccc3CCC21` (single isomer, unassigned; (+)) [(+)PHNO, (+)-4-propyl-9-hydroxy-2,3,4a,5,6,10b-hexahydro-4H-naphth[1,2b][1,4]oxazine HCl], the Kd (D1 receptor) is listed as 80 nM.
With `CCCN1CCc2cccc3c2[C@H]1Cc1ccc(O)c(O)c1-3` [NPA, N-propyl-norapomorphine] the “binding of radioactive raclopride, level of the control value” (D2 receptors in striatum; 25 μg/Kg NPA co-injected i.v., rats, mean ±s.e., n=6, P=0.0004 vs (+)PHNO) was 61%±2.9 % of the control value, the “binding of radioactive (+)PHNO, level of the control value” (D2 receptors in striatum; [2]) was 46 % of the control value and the “inhibition of the binding of radioactive raclopride” value (D2 receptors in striatum; [2]) was 39%. The “inhibition of the binding of radioactive (+)PHNO” value (D2 receptors in striatum; 25 μg/Kg NPA co-injected i.v., rats, n=6, representative experiment) was 54% and the “inhibition of the D2^High receptors” value (D2 receptors in striatum; normal rats, NPA 25 μg/kg i.v. co-injected with radioactive (+)PHNO) was 53%.
